Results: ChEMBL document CHEMBL4665912, “Novel Compounds as STING Modulators for Treating Hepatitis B Virus Infections” (ACS Med Chem Lett, 2020)

Columns and labels:
[1] = target: T1, Stimulator of interferon genes protein (Homo sapiens, UniProt Q86WV6); assay: Competitive binding affinity to human recombinant C-terminal Avi-tag STING using Alexa 488 probe incubated for 15 mins by FRET based assay
[2] = target: T1, Stimulator of interferon genes protein; assay: Agonist activity at STING in human PBMC cells assessed as increase in […] by electrochemiluminescence assay; assay type: cell-based

T1 sequence (Q86WV6 whole entry): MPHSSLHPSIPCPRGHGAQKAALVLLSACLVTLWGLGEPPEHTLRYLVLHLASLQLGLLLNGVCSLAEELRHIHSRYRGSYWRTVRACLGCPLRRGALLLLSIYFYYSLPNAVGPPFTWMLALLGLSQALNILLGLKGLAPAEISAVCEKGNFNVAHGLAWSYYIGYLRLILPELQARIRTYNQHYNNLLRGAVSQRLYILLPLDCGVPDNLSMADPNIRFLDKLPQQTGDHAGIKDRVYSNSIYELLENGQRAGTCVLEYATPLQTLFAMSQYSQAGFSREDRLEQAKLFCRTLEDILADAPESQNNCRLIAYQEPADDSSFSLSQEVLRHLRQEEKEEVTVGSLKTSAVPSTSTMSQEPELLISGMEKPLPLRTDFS

| IC50 [1] [nM] | EC50 [2] [nM] | SMILES |
| --- | --- | --- |
| < 1 | < 1 | CCn1nc(C)cc1C(=O)/N=c1\n(C)c2ccccc2n1C/C=C/Cn1/c(=N/C(=O)c2cc(C)nn2CC)n(C)c2c(CO)cccc21 |
| < 1 | < 1 | CCn1nc(C)cc1C(=O)/N=c1\n(C)c2cccc(OC)c2n1C/C=C/Cn1/c(=N/C(=O)c2cc(C)nn2CC)n(C)c2cccc(OCCCO)c21 |
| < 1 | 1 | CCn1nc(C)cc1C(=O)/N=c1\n(C)c2ccccc2n1C/C=C/Cn1/c(=N/C(=O)c2cc(C)nn2CC)n(C)c2cccc(C(O)CO)c21 (configuration not stated) |
| < 1 | < 1 | CCn1nc(C)cc1C(=O)/N=c1\n(C)c2ccccc2n1C/C=C/Cn1/c(=N/C(=O)c2cc(C)nn2CC)n(C)c2cccc(CN3CCOCC3)c21 |

Further lines, the compound ahead of its results:

| SMILES | IC50 [1] [nM] | EC50 [2] [nM] |
| --- | --- | --- |
| CCn1nc(C)cc1C(=O)/N=c1\n(C)c2ccccc2n1C/C=C/Cn1/c(=N/C(=O)c2cc(C)nn2CC)n(C)c2cccc(CN3CCCCC3)c21 | < 1 | < 1 |
| CCn1nc(C)cc1C(=O)/N=c1\n(C)c2ccccc2n1C/C=C/Cn1/c(=N/C(=O)c2cc(C)nn2CC)n(C)c2cccc(CN3CCCCCC3)c21 | < 1 | < 1 |
